Key:
[1] = test system: Vero cells; test: Cell toxicity assay (MTT); assay type: cell-based; conditions: doses ranging from 0.5 nM to 4 µM, before and after nebulization, Vero-E6 cells
Protocol: Vero cells were incubated at 37 °C in the presence or absence of the indicated peptides at indicated concentrations up to 5 μM HRC4 peptide as added into the media, and the cells were incubated a 37 °C. According to the manufacturer’s guidelines, the viability was determined after 24 h using the Vybrant MTT (3- (4, 5-dimethylthiazolyl-2) −2, 5-diphenyltetrazolium bromide) cell proliferation assay kit. TritonX-100 (1%) was used as a positive control. Absorbance was read at 540 nm using a Tecan M1000PRO microplate reader.

[2] = Laser diffraction and output measurement of the nebulized aerosol; assay type: physicochemical; conditions: HRC4 4 mg/ml, 3 ml, prototype mesh nebulizer, laser diffraction; mean +/- SD of four devices
Protocol: The aerodynamic performances of the aerosols generated by the prototype mesh nebulizer were determined by laser diffraction using a Spraytec™ instrument (Malvern Instruments Ltd., Malvern, UK) and the Spraytec inhalation cell (Malvern Instruments Ltd., Malvern, UK) connected to an aspiration carried out by a vacuum pump set to 30-50 L/min[70]. The prototype mesh nebulizers (n=4) were loaded with 3 ml of either NaCl 0.9% or the HCR4 peptide (4 mg/ml, dissolved as described above) and then connected to the inhalation cell. Nebulization duration was notified at the end of the complete aerosolization of the loaded 3 ml. Diffraction data and volume distribution were automatically registered by the Spraytec software.
The output of nebulizer was determined by the difference between the weight of the nebulizer before and after nebulization and was expressed in percentage of the loaded volume. The output rate of each nebulizer (in ml/min) was then determined as the ratio between the output and the nebulization duration. At least, the residual volume corresponding to the volume of liquid remaining in the reservoir at the end of the nebulization was also determined by weighting the nebulizer before loading it and after nebulization.

[3] = test system: MeV IC323-eGFP; test: Serial passaging of MeV in presence of peptide and sequencing for escape variants; conditions: 1 µM peptide, Vero-hSLAM cells, 8 passages, sequencing of viral RNA

CC[C@H](C)[C@H](NC(=O)[C@H](C)NC(=O)[C@H](CC(N)=O)NC(=O)CNC(=O)[C@H](CC(C)C)NC(=O)[C@H](CC(N)=O)NC(=O)[C@@H](NC(=O)CNC(=O)[C@@H](NC(=O)[C@H](CC(=O)O)NC(=O)[C@H](CC(C)C)NC(=O)[C@H](CCCNC(=N)N)NC(=O)[C@H](CCC(=O)O)NC(=O)[C@H](CC(C)C)NC(=O)[C@H](CO)NC(=O)[C@@H](NC(=O)[C@@H]1CCCN1C(=O)[C@@H]1CCCN1)[C@@H](C)CC)C(C)C)[C@@H](C)O)C(=O)N[C@@H](C)C(=O)N[C@@H](CCCCN)C(=O)N[C@@H](CC(C)C)C(=O)N[C@@H](CCC(=O)O)C(=O)N[C@@H](CC(=O)O)C(=O)N[C@@H](C)C(=O)N[C@@H](CCCCN)C(=O)N[C@@H](CCC(=O)O)C(=O)N[C@@H](CC(C)C)C(=O)N[C@@H](CC(C)C)C(=O)N[C@@H](CCC(=O)O)C(=O)N[C@@H](CO)C(=O)N[C@@H](CO)C(=O)N[C@@H](CC(=O)O)C(=O)N[C@@H](CCC(N)=O)C(=O)N[C@H](C(=O)N[C@@H](CC(C)C)C(=O)N[C@@H](CCCNC(=N)N)C(=O)NCC(=O)N[C@@H](CO)C(=O)NCC(=O)N[C@@H](CO)C(=O)NCC(=O)N[C@@H](CSC1CC(=O)N(CCCC(=O)NCCOCCOCCOCCOCCC(=O)NCCN(CCNC(=O)CCOCCOCCOCCOCCNC(=O)CCCN2C(=O)CC(SC[C@H](NC(=O)CNC(=O)[C@H](CO)NC(=O)CNC(=O)[C@H](CO)NC(=O)CNC(=O)[C@H](CCCNC(=N)N)NC(=O)[C@H](CC(C)C)NC(=O)[C@@H](NC(=O)[C@H](CCC(N)=O)NC(=O)[C@H](CC(=O)O)NC(=O)[C@H](CO)NC(=O)[C@H](CO)NC(=O)[C@H](CCC(=O)O)NC(=O)[C@H](CC(C)C)NC(=O)[C@H](CC(C)C)NC(=O)[C@H](CCC(=O)O)NC(=O)[C@H](CCCCN)NC(=O)[C@H](C)NC(=O)[C@H](CC(=O)O)NC(=O)[C@H](CCC(=O)O)NC(=O)[C@H](CC(C)C)NC(=O)[C@H](CCCCN)NC(=O)[C@H](C)NC(=O)[C@@H](NC(=O)[C@H](C)NC(=O)[C@H](CC(N)=O)NC(=O)CNC(=O)[C@H](CC(C)C)NC(=O)[C@H](CC(N)=O)NC(=O)[C@@H](NC(=O)CNC(=O)[C@@H](NC(=O)[C@H](CC(=O)O)NC(=O)[C@H](CC(C)C)NC(=O)[C@H](CCCNC(=N)N)NC(=O)[C@H](CCC(=O)O)NC(=O)[C@H](CC(C)C)NC(=O)[C@H](CO)NC(=O)[C@@H](NC(=O)[C@@H]3CCCN3C(=O)[C@@H]3CCCN3)[C@@H](C)CC)C(C)C)[C@@H](C)O)[C@@H](C)CC)[C@@H](C)CC)C(=O)O)C2=O)CCO[C@H]2CC[C@@]3(C)C(=CC[C@H]4[C@@H]5CC[C@H]([C@H](C)CCCC(C)C)[C@@]5(C)CC[C@@H]43)C2)C1=O)C(=O)O)[C@@H](C)CC (some centres unmarked) [HRC4]
Cytotoxicity [1]: No measurable cytotoxicity | < 2µm [2]: 13.9 +/- 2.0% | < 5µm [2]: 57.4 +/- 3.9% | VMD [2]: 4.43 +/- 0.26 µm | Mutations in MeV F after serial passage in presence of peptide [3]: no mutations were identified

From publication PMC9616412, “Nebulized fusion inhibitory peptide protects cynomolgus macaques from measles virus infection” (Nature Communications, 2022)
